Results from ChEMBL document CHEMBL1201862, “PubChem BioAssay data set” (2004).
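These data come from cells grown in 96-well plates and exposed to compound for 48 hours at five concentrations. Here, GI50 denotes the concentration required for 50% inhibition of growth.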 The source made the active and inactive calls. Cut-off read from the data, not from the text of the source: active = GI50 up to about 1.1 µM and inactive = higher.

Tests used:
Test in all cases: inhibition of tumour cell growth, NCI panel, 48 h
[1] = tested on: SF-295
[2] = tested on: UACC-257
[3] = tested on: SF-268
[4] = tested on: U-251
[5] = tested on: KM-20L2
[6] = tested on: SK-MEL-2
[7] = tested on: ACHN
[8] = tested on: HCT-116
[9] = tested on: SN12C
[10] = tested on: MOLT-4
[11] = tested on: RXF 393
[12] = tested on: OVCAR-3
[13] = tested on: SNB-78
[14] = tested on: 786-0
[15] = tested on: HOP-92
[16] = tested on: UO-31
[17] = tested on: M19-MEL
[18] = tested on: Malme-3M
[19] = tested on: SR
[20] = tested on: A549
[21] = tested on: CCRF-CEM
[22] = tested on: EKVX
[23] = tested on: HT-29
[24] = tested on: NCI-H460
[25] = tested on: HOP-18
[26] = tested on: OVCAR-5
[27] = tested on: SW-620
[28] = tested on: HCC 2998
[29] = tested on: HL-60
[30] = tested on: SNB-19
[31] = tested on: TK-10
[32] = tested on: HOP-62
[33] = tested on: OVCAR-8
[34] = tested on: SK-MEL-28
[35] = tested on: NCI-H226
[36] = tested on: LXFL 529
[37] = tested on: LOX IMVI
[38] = tested on: DMS-273
[39] = tested on: RPMI-8226
[40] = tested on: COLO 205
[41] = tested on: HCT-15
[42] = tested on: SF-539
[43] = tested on: NCI-H23
[44] = tested on: M14
[45] = tested on: KM12
[46] = tested on: IGROV-1
[47] = tested on: SK-OV-3
[48] = tested on: OVCAR-4
[49] = tested on: UACC-62
[50] = tested on: DLD-1
[51] = tested on: SNB-75
[52] = tested on: NCI-H522
[53] = tested on: SK-MEL-5
[54] = tested on: K562
[55] = tested on: DMS-114
[56] = tested on: CAKI-1
[57] = tested on: MCF7
[58] = tested on: A498
[59] = tested on: XF498
[60] = tested on: NCI/ADR-RES

Measured: GI50

COc1cc(Nc2cnc3ccc(C(F)(F)F)cc3n2)cc(OC)c1OC
3.95 µM: [41]
inactive: [1] 5.53 µM | [2] 9.84 µM | [3] 84.5 µM | [4] > 100 µM | [5] 3.79 µM | [6] 24.7 µM | [7] 9.95 µM | [8] 45.8 µM | [9] > 100 µM | [10] 39.7 µM | [11] 68.4 µM | [12] > 100 µM | [13] > 100 µM | [14] 13.5 µM | [15] 4.82 µM | [16] 67.1 µM | [17] 13.6 µM | [18] > 100 µM | [19] > 100 µM | [20] 20.4 µM | [21] 24.7 µM | [22] > 100 µM | [23] 12.2 µM | [24] 12.9 µM | [25] > 100 µM | [26] > 100 µM | [27] 71.8 µM | [28] 4.43 µM | [29] 9.71 µM | [30] > 100 µM | [31] 38.1 µM | [32] 23.9 µM | [33] > 100 µM | [34] > 100 µM | [35] > 100 µM | [36] 27.4 µM | [37] 4.02 µM | [38] 25.5 µM | [39] 15.3 µM | [40] 6.18 µM | [42] 32.1 µM | [43] > 100 µM

NCCCCN(CCCN)/[N+]([O-])=N\O
> 100 µM: [41]
inactive: [1] > 100 µM | [2] > 100 µM | [3] > 100 µM | [4] > 100 µM | [44] > 100 µM | [5] > 100 µM | [6] > 100 µM | [45] > 100 µM | [46] > 100 µM | [7] > 100 µM | [8] > 100 µM | [47] > 100 µM | [9] > 100 µM | [10] > 100 µM | [11] > 100 µM | [12] > 100 µM | [13] > 100 µM | [14] > 100 µM | [15] > 100 µM | [16] > 100 µM | [17] > 100 µM | [48] > 100 µM | [49] > 100 µM | [18] > 100 µM | [19] > 100 µM | [20] > 100 µM | [50] > 100 µM | [51] > 100 µM | [21] > 100 µM | [23] > 100 µM | [24] > 100 µM | [25] > 100 µM | [26] > 100 µM | [52] > 100 µM | [53] > 100 µM | [27] > 100 µM | [28] > 100 µM | [29] > 100 µM | [30] > 100 µM | [32] > 100 µM | [33] > 100 µM | [34] > 100 µM | [35] > 100 µM | [54] > 100 µM | [55] > 100 µM | [56] > 100 µM | [36] > 100 µM | [38] > 100 µM | [39] > 100 µM | [40] > 100 µM | [42] > 100 µM | [43] > 100 µM

CCCC[S+]([O-])CC(CO)NC(=O)/C=C/c1c(C)[nH]c(=O)[nH]c1=O (stereo not given)
inactive: [1] 8.38 µM | [2] 11 µM | [3] 2.42 µM | [4] 4.03 µM | [57] 8.67 µM | [5] 5.64 µM | [6] 6.34 µM | [58] 7.8 µM | [45] 5.64 µM | [46] 7.29 µM | [8] 10 µM | [47] 10.7 µM | [9] 5.92 µM | [10] 8.3 µM | [11] 11 µM | [12] 5 µM | [59] 4.18 µM | [15] 11.8 µM | [16] 13.3 µM | [17] 2.22 µM | [49] 7.52 µM | [18] 3.14 µM | [20] 10.8 µM | [50] 12.1 µM | [51] 6.85 µM | [21] 6.65 µM | [22] 8.47 µM | [23] 14.8 µM | [24] 3.12 µM | [25] 31.6 µM | [26] 14.7 µM | [52] 5.77 µM | [53] 4.3 µM | [27] 16.5 µM | [28] 8.28 µM | [29] 7.23 µM | [30] 4.89 µM | [32] 8.93 µM | [33] 6.73 µM | [34] 6.5 µM | [35] 11.7 µM | [54] 8.97 µM | [55] 6.41 µM | [56] 18.9 µM | [37] 7.62 µM | [38] 9.75 µM | [39] 9.02 µM | [40] 16.7 µM | [60] 12.4 µM | [42] 7.38 µM | [43] 7.98 µM
31.8 µM: [41]
active: [48] 0.203 µM

CC1(C)OC2C(O1)[C@H]1OC(C(Cl)(Cl)Cl)=N[C@H]1C(I)[C@H]2N1C(=O)c2ccccc2C1=O (stereo not given in full)
inactive: [1] 56.4 µM | [2] 36.1 µM | [3] 71.6 µM | [4] 84.9 µM | [44] 69.3 µM | [5] 60.4 µM | [58] > 100 µM | [45] 49.7 µM | [46] 25.5 µM | [7] 65.6 µM | [8] 47.1 µM | [9] 74.8 µM | [10] 26.1 µM | [11] 28.9 µM | [13] 73.3 µM | [14] > 100 µM | [15] 40.6 µM | [17] 69.8 µM | [48] 24.1 µM | [49] 54.5 µM | [19] 23.1 µM | [20] 32.6 µM | [50] > 100 µM | [51] 56.9 µM | [21] 41.4 µM | [22] 79.3 µM | [23] 59.4 µM | [24] 54.6 µM | [25] > 100 µM | [26] > 100 µM | [52] 24.5 µM | [53] 48.9 µM | [27] > 100 µM | [29] 17.9 µM | [30] > 100 µM | [32] > 100 µM | [33] > 100 µM | [34] 92.3 µM | [35] > 100 µM | [54] 36.7 µM | [55] 30.6 µM | [36] 50.2 µM | [37] 51.2 µM | [38] 52.1 µM | [39] 32.7 µM | [40] 33.6 µM | [42] > 100 µM | [43] 58.2 µM
55.1 µM: [41]

CSc1nc(O)c2cn(Cc3ccccc3)nc2n1
> 75.3 µM: [41]
inactive: [1] > 100 µM | [2] > 100 µM | [3] > 100 µM | [4] > 100 µM | [44] > 91.6 µM | [5] > 67.5 µM | [6] > 100 µM | [58] > 100 µM | [45] > 100 µM | [46] > 100 µM | [7] > 76.4 µM | [8] > 100 µM | [47] > 100 µM | [9] > 100 µM | [10] > 100 µM | [11] > 91 µM | [12] > 100 µM | [13] > 100 µM | [14] > 100 µM | [15] 71.6 µM | [16] > 87.3 µM | [17] > 100 µM | [48] > 100 µM | [49] > 100 µM | [18] > 100 µM | [19] > 100 µM | [20] > 100 µM | [50] > 70.5 µM | [51] > 86.1 µM | [21] 44 µM | [22] > 100 µM | [23] 98.2 µM | [24] > 100 µM | [25] > 100 µM | [26] > 100 µM | [52] > 100 µM | [53] > 100 µM | [27] > 100 µM | [28] > 100 µM | [29] > 100 µM | [30] > 100 µM | [31] > 61.7 µM | [32] > 100 µM | [33] > 100 µM | [34] > 100 µM | [35] > 100 µM | [54] 77.8 µM | [55] > 100 µM | [56] 41 µM | [36] 58.6 µM | [37] > 100 µM | [38] > 100 µM | [39] > 100 µM | [40] > 100 µM | [42] > 100 µM | [43] > 100 µM
